For one compound, EC50 results are on record in patent US20090202987A1, “Canis sphingosine 1-phosphate receptor isoform 2” (priority 2004, published 2009).

The target of experiment [1] is T1, cS1P2 receptor (Canis lupus familiaris, UniProt A0A8I3P3I1). In words: S1P ligand binding assay with transfected CHO cells expressing the cS1P2 receptor. As to conditions: 33P-S1P binding to CHO cells expressing cS1P2, 60 minutes at room temperature; read-out: EC50 (S1P ligand binding, FIG. 3). More on the design: species or system Canis (dog). The protocol:
The transfected CHO cells from Example 2 expressing the cS1P2 receptor were evaluated for the ability of the cS1P2 receptor expressed in the cells to properly integrate into the cell membrane and bind SIP.
Transfected CHO cells from Example 2 were harvested with enzyme-free dissociation solution (Specialty Media, Lavallette, N.J.). The cells were washed once in cold PBS and suspended in SIP binding buffer (50 mM HEPES-Na, pH 7.5, 5 mM MgCl2, 1 mM CaCl2, 0.5% FAF-BSA). ^33P-S1P was synthesized enzymatically from γ^33P-ATP and sphingosine using a crude extract with sphingosine kinase activity in a reaction mix containing 50 mM KH2PO4, 1 mM mercaptoethanol, 1 mM Na3VO4, 25 mM KF, 2 mM semicarbazide, 1 mM Na2EDTA, 5 mM MgCl2, […], 0.1% TritonX-114, and 1 mCi γ^33P-ATP (NEN; specific activity 2000 Ci/mnol). Reaction products were extracted with butanol and ^33P-S1p was purified by HPLC.
^33P-S1P (0.1 uCi/ml) was sonicated with 0.2 nM S1P dissolved in binding buffer; 100 μL of the mixture was added to 100 μL cells (1×10^5). Binding was performed for 60 minutes at room temperature. […] After drying the filter plates for 30 minutes, 50 μL of MICROSCINT 20 was added to each well and binding was measured with a Packard Top Count. Non-specific binding was defined as the amount of radioactivity remaining in the presence of 200 nM cold S1P.

In experiment [2] the target is T1, cS1P2 receptor. The experiment can be described thus: 35S-GTPγS binding assay with membranes from transfected CHO cells. Type of experiment: biochemical, Canis (dog). The following applies: membranes of cS1P2-transfected CHO cells, 5 μM GDP, 100 pM 35S-GTPγS, one hour at room temperature; read-out: EC50 (35S-GTPγS binding, FIG. 4). As for the experimental part:
Functional coupling of the cS1P2 receptor to G proteins was measured in a ^35S-GTPγS binding assay. Membranes were prepared from transfected cells by homogenization in ice cold 20 mM HEPES pH 7.4, 10 mM EDTA using a Kinematica polytron (setting 5, for 10 seconds). Homogenates were centrifuged at 48,000×g for 15 minutes at 4° C. and the pellet suspended in 20 mM HEPES pH 7.4, 0.11 mM EDTA. Following a second centrifugation, the final pellet was suspended in 20 mM HEPES pH 7.4, 100 mM NaCl, 10 mM MgCl2. Membranes were incubated in 200 μL with 5 μM GDP, various concentrations of SIP (sonicated in 1% BSA), and 100 pM ^35S-GTPγS (NEN; specific activity 1250 Ci/mmol) in 96 well microtiter dishes. Binding was performed for one hour at room temperature, and terminated by harvesting the membranes onto GF/B filter plates with a Packard Filtermate Universal Harvester. After drying the filter plates for 30 min, 40 μL of MICROSCINT 20 was added to each well and binding was measured on a Packard Top Count scintillation counter.

Consider `CCCCCCCCCCCCC/C=C/[C@@H](O)[C@@H](N)COP(=O)(O)O` [S1P, sphingosine-1-phosphate], for which the EC50 (usually the concentration giving half of the maximal effect) on cS1P2 receptor [1] is around 5.7 nM; at cS1P2 receptor [2], around 0.8 nM.
